Measured values: US8431593B2, “Heteroaryl amide derivatives” (H. Lundbeck A/S, priority 2006, dated 2013)

Molecular target: T1, P2X7 receptor (Homo sapiens, UniProt Q99572)
T1 construct: host or cells: SH-SY5Y
T1 sequence (Q99572 1-595): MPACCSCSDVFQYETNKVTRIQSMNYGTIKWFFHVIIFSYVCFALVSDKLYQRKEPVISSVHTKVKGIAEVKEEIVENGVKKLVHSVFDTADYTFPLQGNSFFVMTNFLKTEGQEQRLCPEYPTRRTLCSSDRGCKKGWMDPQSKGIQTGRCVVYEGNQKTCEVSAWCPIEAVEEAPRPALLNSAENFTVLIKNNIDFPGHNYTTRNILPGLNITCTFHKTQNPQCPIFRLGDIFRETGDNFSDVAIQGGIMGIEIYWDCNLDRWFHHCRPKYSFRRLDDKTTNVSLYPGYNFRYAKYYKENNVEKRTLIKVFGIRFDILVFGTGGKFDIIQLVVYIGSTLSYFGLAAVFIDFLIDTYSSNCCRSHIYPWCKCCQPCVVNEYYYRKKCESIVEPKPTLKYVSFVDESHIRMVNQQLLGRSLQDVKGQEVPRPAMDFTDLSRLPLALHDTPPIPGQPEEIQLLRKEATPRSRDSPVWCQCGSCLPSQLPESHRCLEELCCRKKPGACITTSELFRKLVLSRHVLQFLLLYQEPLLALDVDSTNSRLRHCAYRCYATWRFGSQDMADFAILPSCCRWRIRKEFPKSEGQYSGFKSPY
Assay: P2X7 calcium mobilization assay, high throughput, antagonist activity (Example 4A)
Format: cell-based
Settings: not given
Summary of the method: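 100,000 cells/well, plated day -1. Dye 1 h → rinse → compound 1 h, RT → FLIPR^TETRA Ca2+ mobilization. Max RFU minus mean negative control (no agonist); mean agonist-well max as positive control.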

| Compound | IC50 |
| --- | --- |
| CCC(O)CNC(=O)Cc1cn2c(C(=O)NCC34CC5CC(CC(C5)C3)C4)cccc2n1 (stereo not drawn) [Compound 30, N-(adamantan-1-ylmethyl)-2-{2-[(2-hydroxy-butyl)amino]-2-oxoethyl}imi-dazo[1,2-a]pyridine-5-carboxamide] | < 2 µM |

Same assay, conditions: 50% decrease in the fluorescence response of cells exposed to 80 μM 2′(3′)-O-(4-benzoyl-benzoyl)adenosine 5′-triphosphate; Example 4A; read-out: IC50

| IC50 | Compound |
| --- | --- |
| < 2 µM | CC1(C)[C@@H]2CC[C@@H](CNC(=O)c3cccc4nc(CC(=O)NCC5CCNCC5)cn34)[C@H]1C2 [Compound 589, N-{[(1R,2R,5R)-6,6-dimethylbicyclo[3.1.1]hept-2-yl]methyl}-2-{2-oxo-2-[(piperidin-4-ylmethyl)amino]ethyl} imidazo[1,2-a]pyridine-5-carboxamide] |
| < 2 µM | CC1(C)C2CC[C@H](CNC(=O)c3cccc4nc(CC(=O)N5CCC[C@@H](N)C5)cn34)C1C2 (relative stereo) [Compound 550, rel-2-{2-[(3R)-3-aminopiperidin-1-yl]-2-oxoethyl}-N-{[(2S)-6,6-dimethylbicyclo[3.1.1]hept-2-yl]methyl}imidazo[1,2-a]pyridine-5-carboxamide] |
| < 2 µM | CC(C)(C)C(O)CNC(=O)c1cn2c(C(=O)NC[C@@H]3CC[C@H]4C[C@@H]3C4(C)C)cccc2n1 (stereo partly drawn) [Compound 528, 5-N-{[(1S,2R,5S)-6,6-dimethylbicyclo[3.1.1]hept-2-yl]methyl}-2-N-(2-hydroxy-3,3-dimethylbutyl)imidazo [1,2-a]pyridine-2,5-dicarboxamide] |

Same assay, conditions: 50% decrease in the fluorescence response of cells exposed to 80 μM of 2′(3′)-O-(4-benzoyl-benzoyl)adenosine 5′-triphosphate; Example 4A; read-out: IC50

| IC50 | Compound |
| --- | --- |
| < 2 µM | CC(C)CC(CNC(=O)c1cccc2nc(CN3CC[C@@H](N)C3)cn12)c1ccc(C(F)(F)F)cc1 (stereo in doubt) [Compound 763, 2-[(3-aminopyrrolidin-1-yl)methyl]-N-{4-methyl-2-[4-(trifluoromethyl)phenyl]pentyl}imidazo [1,2-a] pyridine-5-carboxamide] |
| < 2 µM | CN1CCC(NC(=O)c2cn3c(C(=O)NCC45CC6CC(CC(C6)C4)C5)cccc3n2)CC1 [Compound 659, 5-N-(adamantan-1-ylmethyl)-2-N-(1-methylpiperidin-4-yl)imidazo[1,2-a]pyridine-2,5-dicarboxamide] |
| < 2 µM | O=C(NCC12CC3CC(CC(C3)C1)C2)c1cccc2nc(C(Cc3cccnc3)C(=O)O)cn12 (stereo not drawn) [Compound 730, 2-{5-[(adamantan-1-ylmethyl)carbamoyl]imidazo[1,2-a]pyridin-2-yl}-3-pyridin-3-ylpropanoic acid] |
| < 2 µM | CCN(CC)C1CCN(C(=O)c2cn3c(C(=O)NCC45CC6CC(CC(C6)C4)C5)cccc3n2)CC1 [Compound 674, N-(adamantan-1-ylmethyl)-2-{[4-(diethylamino)piperidin-1-yl]carbonyl}imidazo [1,2-a]pyridine-5-carboxamide] |
| < 2 µM | N#CCC1CCN(C(=O)c2cn3c(C(=O)NCC45CC6CC(CC(C6)C4)C5)cccc3n2)CC1 [Compound 705, N-(adamantan-1-ylmethyl)-2-{[4-(cyanomethyl)piperidin-1-yl]carbonyl} imidazo[1,2-a]pyridine-5-carboxamide] |
| < 2 µM | CCOC(=O)C(CC(=O)N1CCOCC1)c1cn2c(C(=O)NCC34CC5CC(CC(C5)C3)C4)cccc2n1 (stereo not drawn) [Compound 802, ethyl 2-{5-[(adamantan-1-ylmethyl)carbamoyl]imidazo[1,2-a]pyridin-2-yl}-4-morpholin-4-yl-4-oxobutanoate] |

Same assay, conditions: 50% decrease in the fluorescence response of cells exposed to 80 μM of 2′(3′)-O-(4-benzoyl-benzoyl)adenosine 5′-triphosphate; determined as in Example 4A; read-out: IC50

| IC50 | Compound |
| --- | --- |
| < 2 µM | O=C(O)CCc1cn2c(C(=O)NCC3(c4ccc(Cl)cc4)CCCCC3)cccc2n1 [Compound 900, 3-[5-({[1-(4-chlorophenyl)cyclohexyl]methyl}carbamoyl)imidazo[1,2-a]pyridin-2-yl] propanoic acid] |
| < 2 µM | O=C(NCC12CC3CC(CC(C3)C1)C2)c1cccc2nc(C(CC3CC3)C(=O)O)cn12 (stereo not drawn) [Compound 1002, 2-{5-[(adamantan-1-ylmethyl)carbamoyl]imidazo[1,2-a]pyridin-2-yl}-3-cyclopropylpropanoic acid] |
| < 2 µM | O=C(Cc1cn2c(C(=O)NCCc3ccccc3)cccc2n1)NCC12CC3CC(CC(C3)C1)C2 [Compound 972, 2-{2-[(adamantan-1-ylmethyl)amino]-2-oxoethyl}-N-(2-phenylethyl)imidazo[1,2-a]pyridine-5-carboxamide] |
| < 2 µM | CCOC(=O)[C@@H]1CCCC[C@@H]1c1cn2c(C(=O)NCC34CC5CC(CC(C5)C3)C4)cccc2n1 (relative stereo) [Compound 996, ethyl rel-(1R,2S)-2-{5-[(adamantan-1-ylmethyl)carbamoyl]imidazo[1,2-a]pyridin-2-yl} cyclohexane-carboxylate] |
| < 2 µM | O=C(NCC12CC3CC(CC(C3)C1)C2)c1cccc2nc([C@H]3CC[C@@H](C(=O)O)CC3)cn12 [Compound 954, cis-4-{5-[(adamantan-1-ylmethyl)carbamoyl]imidazo[1,2-a]pyridin-2-yl} cyclohexane-carboxylic acid] |

Same assay, conditions: SH-SY5Y cells; 50% decrease in fluorescence response to 80 μM BzATP; read-out: IC50

| IC50 | Compound |
| --- | --- |
| < 2 µM | COC[C@H]1CCCN1C(=O)Cc1cn2c(C(=O)NCC34CC5CC(CC(C5)C3)C4)cccc2n1 [Compound 172, N-(adamantan-1-ylmethyl)-2-{2-[(2R)-2-(methoxymethyl)pyrrolidin-1-yl]-2-oxoethyl}imidazo[1,2-a]pyridine-5-carboxamide] |
| < 2 µM | CCOCCNC(=O)Cc1cn2c(C(=O)NCC34CC5CC(CC(C5)C3)C4)cccc2n1 [Compound 155, N-(adamantan-1-ylmethyl)-2-{2-[(2-ethoxyethyl)amino]-2-oxoethyl}imidazo[1,2-a]pyridine-5-carboxamide] |
| < 2 µM | CN(C)C(=O)CNC(=O)Cc1cn2c(C(=O)NCC34CC5CC(CC(C5)C3)C4)cccc2n1 [Compound 20, N-(adamantan-1-ylmethyl)-2-(2-{[2-(dimethylamino)-2-oxoethyl]amino}-2-oxoethyl)imidazo[1,2-a]pyridine-5-carboxamide] |
| < 2 µM | O=C(NCC12CC3CC(CC(C3)C1)C2)c1cccc2nc(CC(=O)N3CCC(O)CC3)cn12 [Compound 54, N-(adamantan-1-ylmethyl)-2-[2-(4-hydroxypiperidin-1-yl)-2-oxoethyl]imidazo[1,2-a]pyridine-5-carboxamide] |

Same assay, conditions: fluorescence response of cells exposed to 80 μM 2′(3′)-O-(4-benzoyl-benzoyl)adenosine 5′-triphosphate; Example 4A; read-out: IC50

| IC50 | Compound |
| --- | --- |
| < 2 µM | CN(C(=O)c1cn2c(NC(=O)CC34CC5CC(CC(C5)C3)C4)cccc2n1)C1CCOC1 (stereo not drawn) [Compound 393, 5-[(adamantan-1-ylacetyl)amino]-N-methyl-N-(tetrahydrofuran-3-yl)imidazo[1,2-a]pyridine-2-carboxamide] |
| < 2 µM | O=C(O)c1ccc(=O)n(Cc2cn3c(C(=O)NCC45CC6CC(CC(C6)C4)C5)cccc3n2)c1 [Compound 350, 1-({5-[(adamantan-1-ylmethyl)carbamoyl]imidazo[1,2-a]pyridin-2-yl}methyl)-6-oxo-1,6-dihydropyridine-3-carboxylic acid] |
| < 2 µM | NCCc1cn2c(C(=O)NCC34CC5CC(CC(C5)C3)C4)cccc2n1 [Compound 297, N-(adamantan-1-ylmethyl)-2-(2-aminoethyl)imidazo [1,2-a]pyridine-5-carboxamide] |
| < 2 µM | O=C1CCN(C(=O)c2cn3c(NC(=O)CC45CC6CC(CC(C6)C4)C5)cccc3n2)CCN1 [Compound 380, 2-adamantan-1-yl-N-{2-[(5-oxo-1,4-diazepan-1-yl)carbonl]imidazo [1,2-a]pyridin-5-yl}acetamide] |
| < 2 µM | O=C(CC12CC3CC(CC(C3)C1)C2)Nc1cccc2nc(C(=O)N3CCSCC3)cn12 [Compound 362, 2-adamantan-1-yl-N-[2-(thiomorpholin-4-ylcarbonyl)imidazo[1,2-a]pyridin-5-yl]acetamide] |
